Experimental data published in ChEMBL document CHEMBL1201862, “PubChem BioAssay data set” (2004).
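Where inhibition never reached the appropriate level, the endpoint shown equals the highest concentration tested. Otherwise, values were interpolated linearly from a five-concentration, 48-hour dose response in 96-well plates. GI50: concentration for 50% inhibition of growth.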 Activity calls are given as the source filed them. Cut-off read from the data, not from the text of the source: active = GI50 up to about 1.1 µM and inactive = higher.

How the values were obtained:
Experiment in all cases: DTP human tumour cell line panel, 48 h
DU-145 = system: DU-145
IGROV-1 = system: IGROV-1
HOP-62 = system: HOP-62
786-0 = system: 786-0
PC-3 = system: PC-3
SF-295 = system: SF-295
SK-MEL-2 = system: SK-MEL-2
Hs-578T = system: Hs-578T
TK-10 = system: TK-10
HL-60 = system: HL-60
NCI/ADR-RES = system: NCI/ADR-RES
OVCAR-3 = system: OVCAR-3
SW-620 = system: SW-620
MOLT-4 = system: MOLT-4
MCF7 = system: MCF7
OVCAR-5 = system: OVCAR-5
SNB-19 = system: SNB-19
EKVX = system: EKVX
CAKI-1 = system: CAKI-1
MDA-N = system: MDA-N
MDA-MB-231 = system: MDA-MB-231
COLO 205 = system: COLO 205
Malme-3M = system: Malme-3M
LOX IMVI = system: LOX IMVI
RXF 393 = system: RXF 393
SK-MEL-5 = system: SK-MEL-5
HCT-15 = system: HCT-15
U-251 = system: U-251
OVCAR-8 = system: OVCAR-8
OVCAR-4 = system: OVCAR-4
SK-MEL-28 = system: SK-MEL-28
SK-OV-3 = system: SK-OV-3
T47D = system: T47D
RPMI-8226 = system: RPMI-8226
A549 = system: A549
K562 = system: K562
HCT-116 = system: HCT-116
KM12 = system: KM12
ACHN = system: ACHN
NCI-H522 = system: NCI-H522
SR = system: SR
UACC-257 = system: UACC-257
SF-268 = system: SF-268
HT-29 = system: HT-29
HOP-92 = system: HOP-92
UACC-62 = system: UACC-62
M14 = system: M14
NCI-H23 = system: NCI-H23
BT-549 = system: BT-549
NCI-H226 = system: NCI-H226
A498 = system: A498
MDA-MB-435 = system: MDA-MB-435
SN12C = system: SN12C
UO-31 = system: UO-31
NCI-H460 = system: NCI-H460
SF-539 = system: SF-539
CCRF-CEM = system: CCRF-CEM
SNB-75 = system: SNB-75

Which GI50 (DU-145) does the source give for `CCC1c2[nH]c3ccccc3c2C[C@H]2C(=O)NC(CCC(=O)OC(C)(C)C)C(=O)N12` (some centres not stated) here?
Its GI50 is > 100000 nM (inactive).

And the GI50 (IGROV-1)?
Its GI50 is 53800 nM (inactive).

What about the GI50 (HOP-62) of the same compound?
The GI50 was 78500 nM (inactive).

And the GI50 (786-0)?
The GI50 was 56600 nM (inactive).

And the GI50 (PC-3)?
Its GI50 is 33700 nM (inactive).

What about the GI50 (SF-295) of the same compound?
Its GI50 is 42300 nM (inactive).

What about the GI50 (SK-MEL-2) of the same compound?
Its GI50 is 60800 nM (inactive).

What about the GI50 (Hs-578T) of the same compound?
The GI50 was 32700 nM (inactive).

And the GI50 (TK-10)?
The GI50 was 42600 nM (inactive).

What about the GI50 (HL-60) of the same compound?
Its GI50 is 34000 nM (inactive).

And the GI50 (NCI/ADR-RES)?
The GI50 was 62500 nM (inactive).

What about the GI50 (OVCAR-3) of the same compound?
The GI50 was 22400 nM (inactive).

And the GI50 (SW-620)?
Its GI50 is 67300 nM (inactive).

What about the GI50 (MOLT-4) of the same compound?
Its GI50 is 35300 nM (inactive).

What about the GI50 (MCF7) of the same compound?
Its GI50 is 42400 nM (inactive).

And the GI50 (OVCAR-5)?
Its GI50 is 62100 nM (inactive).

And the GI50 (SNB-19)?
The GI50 was 73500 nM (inactive).

What about the GI50 (EKVX) of the same compound?
Its GI50 is 42600 nM (inactive).

What about the GI50 (CAKI-1) of the same compound?
Its GI50 is > 100000 nM (inactive).

And the GI50 (MDA-N)?
The GI50 was 51500 nM (inactive).

And the GI50 (MDA-MB-231)?
Its GI50 is 66400 nM (inactive).

And the GI50 (COLO 205)?
Its GI50 is 32400 nM (inactive).

And the GI50 (Malme-3M)?
Its GI50 is 12600 nM (inactive).

And the GI50 (LOX IMVI)?
Its GI50 is 51400 nM (inactive).

What about the GI50 (RXF 393) of the same compound?
The GI50 was 52700 nM (inactive).

And the GI50 (SK-MEL-5)?
Its GI50 is 39400 nM (inactive).

What about the GI50 (HCT-15) of the same compound?
Its GI50 is 52000 nM.

And the GI50 (U-251)?
Its GI50 is 56600 nM (inactive).

What about the GI50 (OVCAR-8) of the same compound?
Its GI50 is 48400 nM (inactive).

What about the GI50 (OVCAR-4) of the same compound?
The GI50 was 41400 nM (inactive).

What about the GI50 (SK-MEL-28) of the same compound?
The GI50 was 73500 nM (inactive).

And the GI50 (SK-OV-3)?
The GI50 was 63500 nM (inactive).

And the GI50 (T47D)?
The GI50 was 40600 nM (inactive).

What about the GI50 (RPMI-8226) of the same compound?
Its GI50 is 31600 nM (inactive).

What about the GI50 (A549) of the same compound?
Its GI50 is 43000 nM (inactive).

What about the GI50 (K562) of the same compound?
Its GI50 is 53600 nM (inactive).

What about the GI50 (HCT-116) of the same compound?
Its GI50 is 43300 nM (inactive).

What about the GI50 (KM12) of the same compound?
The GI50 was 35100 nM (inactive).

And the GI50 (ACHN)?
The GI50 was 47400 nM (inactive).

And the GI50 (NCI-H522)?
Its GI50 is 29600 nM (inactive).

What about the GI50 (SR) of the same compound?
Its GI50 is 41700 nM (inactive).

What about the GI50 (UACC-257) of the same compound?
The GI50 was 40200 nM (inactive).

And the GI50 (SF-268)?
The GI50 was 37400 nM (inactive).

And the GI50 (HT-29)?
The GI50 was 34000 nM (inactive).

And the GI50 (HOP-92)?
Its GI50 is 30600 nM (inactive).

What about the GI50 (UACC-62) of the same compound?
Its GI50 is 66500 nM (inactive).

What about the GI50 (M14) of the same compound?
Its GI50 is 42500 nM (inactive).

What about the GI50 (NCI-H23) of the same compound?
The GI50 was 68700 nM (inactive).

And the GI50 (BT-549)?
Its GI50 is 53300 nM (inactive).

And the GI50 (NCI-H226)?
Its GI50 is > 100000 nM (inactive).

And the GI50 (A498)?
Its GI50 is 89700 nM (inactive).

What about the GI50 (MDA-MB-435) of the same compound?
The GI50 was 49500 nM (inactive).

And the GI50 (SN12C)?
The GI50 was 39400 nM (inactive).

What about the GI50 (UO-31) of the same compound?
Its GI50 is 46900 nM (inactive).

How did the GI50 (DU-145) turn out when `CC1(C)CCC(C)(C)c2c1ccc(O)c2Cc1c(O)ccc2c1C(C)(C)CCC2(C)C` was run?
The GI50 was 2230 nM (inactive).

And the GI50 (IGROV-1)?
Its GI50 is 1970 nM (inactive).

What about the GI50 (HOP-62) of the same compound?
Its GI50 is 2190 nM (inactive).

And the GI50 (786-0)?
Its GI50 is 1920 nM (inactive).

What about the GI50 (PC-3) of the same compound?
The GI50 was 2000 nM (inactive).

What about the GI50 (SF-295) of the same compound?
The GI50 was 2450 nM (inactive).

What about the GI50 (SK-MEL-2) of the same compound?
Its GI50 is 1650 nM (inactive).

What about the GI50 (Hs-578T) of the same compound?
Its GI50 is 2840 nM (inactive).

And the GI50 (TK-10)?
Its GI50 is 1980 nM (inactive).

And the GI50 (HL-60)?
Its GI50 is 2760 nM (inactive).

And the GI50 (NCI/ADR-RES)?
Its GI50 is 2080 nM (inactive).

What about the GI50 (OVCAR-3) of the same compound?
The GI50 was 2210 nM (inactive).

And the GI50 (SW-620)?
Its GI50 is 2180 nM (inactive).

And the GI50 (NCI-H460)?
The GI50 was 2470 nM (inactive).

And the GI50 (MOLT-4)?
Its GI50 is 2110 nM (inactive).

And the GI50 (MCF7)?
The GI50 was 1840 nM (inactive).

What about the GI50 (OVCAR-5) of the same compound?
The GI50 was 2250 nM (inactive).

And the GI50 (SNB-19)?
Its GI50 is 2280 nM (inactive).

What about the GI50 (EKVX) of the same compound?
The GI50 was 2930 nM (inactive).

What about the GI50 (CAKI-1) of the same compound?
The GI50 was 2150 nM (inactive).

And the GI50 (MDA-N)?
Its GI50 is 1920 nM (inactive).

What about the GI50 (MDA-MB-231) of the same compound?
Its GI50 is 1660 nM (inactive).

And the GI50 (COLO 205)?
The GI50 was 2130 nM (inactive).

What about the GI50 (Malme-3M) of the same compound?
Its GI50 is 2700 nM (inactive).

And the GI50 (SF-539)?
Its GI50 is 1990 nM (inactive).

What about the GI50 (LOX IMVI) of the same compound?
Its GI50 is 1840 nM (inactive).

And the GI50 (RXF 393)?
The GI50 was 1870 nM (inactive).

What about the GI50 (SK-MEL-5) of the same compound?
The GI50 was 1870 nM (inactive).

And the GI50 (HCT-15)?
The GI50 was 1920 nM.

What about the GI50 (U-251) of the same compound?
Its GI50 is 1780 nM (inactive).

And the GI50 (OVCAR-8)?
Its GI50 is 2130 nM (inactive).

What about the GI50 (OVCAR-4) of the same compound?
Its GI50 is 1810 nM (inactive).

And the GI50 (CCRF-CEM)?
Its GI50 is 2310 nM (inactive).

And the GI50 (SK-MEL-28)?
Its GI50 is 2120 nM (inactive).

And the GI50 (SK-OV-3)?
The GI50 was 2300 nM (inactive).

What about the GI50 (T47D) of the same compound?
Its GI50 is 1870 nM (inactive).

And the GI50 (RPMI-8226)?
The GI50 was 1870 nM (inactive).

What about the GI50 (A549) of the same compound?
The GI50 was 2270 nM (inactive).

What about the GI50 (K562) of the same compound?
The GI50 was 2190 nM (inactive).

And the GI50 (HCT-116)?
The GI50 was 2000 nM (inactive).

And the GI50 (KM12)?
The GI50 was 1950 nM (inactive).

And the GI50 (ACHN)?
Its GI50 is 1740 nM (inactive).

What about the GI50 (NCI-H522) of the same compound?
Its GI50 is 1970 nM (inactive).

And the GI50 (SR)?
The GI50 was 2700 nM (inactive).

What about the GI50 (UACC-257) of the same compound?
The GI50 was 1850 nM (inactive).

What about the GI50 (SF-268) of the same compound?
The GI50 was 2470 nM (inactive).

What about the GI50 (HT-29) of the same compound?
The GI50 was 2190 nM (inactive).

What about the GI50 (HOP-92) of the same compound?
Its GI50 is 1950 nM (inactive).

What about the GI50 (UACC-62) of the same compound?
The GI50 was 2020 nM (inactive).

What about the GI50 (M14) of the same compound?
Its GI50 is 1880 nM (inactive).

And the GI50 (NCI-H23)?
The GI50 was 2040 nM (inactive).

What about the GI50 (BT-549) of the same compound?
Its GI50 is 2330 nM (inactive).

And the GI50 (NCI-H226)?
The GI50 was 1880 nM (inactive).

And the GI50 (A498)?
The GI50 was 1790 nM (inactive).

And the GI50 (MDA-MB-435)?
Its GI50 is 1870 nM (inactive).

What about the GI50 (SN12C) of the same compound?
The GI50 was 1820 nM (inactive).

And the GI50 (UO-31)?
Its GI50 is 1920 nM (inactive).

And the GI50 (SNB-75)?
The GI50 was 2010 nM (inactive).
